From PubChem BioAssay (NCI)
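Where inhibition never reached the appropriate level, the endpoint shown equals the highest concentration tested. Otherwise, values were interpolated linearly from a five-concentration, 48-hour dose response in 96-well plates. Definition used: TGI = concentration required for complete inhibition of growth.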

How the values were obtained:
Experiment in all cases: NCI tumour cell line growth inhibition, 48 h
HCC-2998 colon = tested on: HCC-2998 colon
SK-MEL-2 melanoma = tested on: SK-MEL-2 melanoma
MDA-N = tested on: MDA-N
HOP-92 NSCLC = tested on: HOP-92 NSCLC
ACHN renal = tested on: ACHN renal
PC-3 prostate = tested on: PC-3 prostate
SW-620 colon = tested on: SW-620 colon
RXF 393 renal = tested on: RXF 393 renal
IGROV1 ovarian = tested on: IGROV1 ovarian
SF-539 CNS = tested on: SF-539 CNS
MOLT-4 leukemia = tested on: MOLT-4 leukemia
UACC-257 melanoma = tested on: UACC-257 melanoma
K-562 leukemia = tested on: K-562 leukemia
786-0 renal = tested on: 786-0 renal
COLO 205 colon = tested on: COLO 205 colon
NCI/ADR-RES ovarian = tested on: NCI/ADR-RES ovarian
SK-MEL-28 melanoma = tested on: SK-MEL-28 melanoma
LOX IMVI melanoma = tested on: LOX IMVI melanoma
MCF7 breast = tested on: MCF7 breast
A498 renal = tested on: A498 renal
SK-OV-3 ovarian = tested on: SK-OV-3 ovarian
NCI-H522 lung = tested on: NCI-H522 lung
DU-145 prostate = tested on: DU-145 prostate
OVCAR-3 ovarian = tested on: OVCAR-3 ovarian
MDA-MB-435 = tested on: MDA-MB-435
TK-10 renal = tested on: TK-10 renal
MDA-MB-231 breast = tested on: MDA-MB-231 breast
M14 melanoma = tested on: M14 melanoma
SF-295 CNS = tested on: SF-295 CNS
HL-60(TB) leukemia = tested on: HL-60(TB) leukemia
UO-31 renal = tested on: UO-31 renal
SN12C renal = tested on: SN12C renal
OVCAR-4 ovarian = tested on: OVCAR-4 ovarian
BT-549 breast = tested on: BT-549 breast
OVCAR-8 ovarian = tested on: OVCAR-8 ovarian
RPMI-8226 leukemia = tested on: RPMI-8226 leukemia
SR leukemia = tested on: SR leukemia
SNB-75 CNS = tested on: SNB-75 CNS
SK-MEL-5 melanoma = tested on: SK-MEL-5 melanoma
OVCAR-5 ovarian = tested on: OVCAR-5 ovarian
HCT-116 colon = tested on: HCT-116 colon
CAKI-1 renal = tested on: CAKI-1 renal
U251 CNS = tested on: U251 CNS
HCT-15 colon = tested on: HCT-15 colon
UACC-62 melanoma = tested on: UACC-62 melanoma
A549 NSCLC = tested on: A549 NSCLC
CCRF-CEM leukemia = tested on: CCRF-CEM leukemia
MALME-3M melanoma = tested on: MALME-3M melanoma
SNB-19 CNS = tested on: SNB-19 CNS
NCI-H460 lung = tested on: NCI-H460 lung
NCI-H23 lung = tested on: NCI-H23 lung
EKVX NSCLC = tested on: EKVX NSCLC
KM12 colon = tested on: KM12 colon
NCI-H226 lung = tested on: NCI-H226 lung
HOP-62 NSCLC = tested on: HOP-62 NSCLC
SF-268 CNS = tested on: SF-268 CNS
HT29 colon = tested on: HT29 colon

Compound CC(C)CC(NC(=O)C(CSc1ccc([N+](=O)[O-])cc1)Cc1ccccc1)C(=O)Nc1ccccc1 (stereo not given) has a TGI (HCC-2998 colon) greater than 100 µM, a TGI (SK-MEL-2 melanoma) greater than 100 µM and a TGI (MDA-N) greater than 100 µM. For the same compound, the TGI (HOP-92 NSCLC) was greater than 100 µM, the TGI (ACHN renal) was greater than 100 µM and the TGI (PC-3 prostate) was greater than 100 µM. For the same compound, the TGI (SW-620 colon) was greater than 100 µM, the TGI (RXF 393 renal) was greater than 100 µM and the TGI (IGROV1 ovarian) was greater than 100 µM. For the same compound, the TGI (SF-539 CNS) was greater than 100 µM, the TGI (MOLT-4 leukemia) was greater than 100 µM and the TGI (UACC-257 melanoma) was greater than 100 µM. It also gave a TGI (K-562 leukemia) greater than 100 µM, a TGI (786-0 renal) greater than 100 µM and a TGI (COLO 205 colon) greater than 100 µM. The TGI (NCI/ADR-RES ovarian) was greater than 100 µM, the TGI (SK-MEL-28 melanoma) was greater than 100 µM and the TGI (LOX IMVI melanoma) was greater than 100 µM. The TGI (MCF7 breast) was greater than 100 µM, the TGI (A498 renal) was greater than 100 µM and the TGI (SK-OV-3 ovarian) was greater than 100 µM. For the same compound, the TGI (NCI-H522 lung) was greater than 100 µM, the TGI (DU-145 prostate) was greater than 100 µM and the TGI (OVCAR-3 ovarian) was greater than 100 µM. It also gave a TGI (MDA-MB-435) greater than 100 µM, a TGI (TK-10 renal) greater than 100 µM and a TGI (MDA-MB-231 breast) greater than 100 µM. The TGI (M14 melanoma) was greater than 100 µM, the TGI (SF-295 CNS) was greater than 100 µM and the TGI (HL-60(TB) leukemia) was greater than 100 µM. For the same compound, the TGI (UO-31 renal) was greater than 100 µM, the TGI (SN12C renal) was greater than 100 µM and the TGI (OVCAR-4 ovarian) was greater than 100 µM. It also gave a TGI (BT-549 breast) of 59.5 µM, a TGI (OVCAR-8 ovarian) greater than 100 µM and a TGI (RPMI-8226 leukemia) greater than 100 µM. For the same compound, the TGI (SR leukemia) was greater than 100 µM, the TGI (SNB-75 CNS) was 65.1 µM and the TGI (SK-MEL-5 melanoma) was greater than 100 µM. For the same compound, the TGI (OVCAR-5 ovarian) was greater than 100 µM, the TGI (HCT-116 colon) was greater than 100 µM and the TGI (CAKI-1 renal) was greater than 100 µM. It also gave a TGI (U251 CNS) greater than 100 µM, a TGI (HCT-15 colon) greater than 100 µM and a TGI (UACC-62 melanoma) greater than 100 µM. For the same compound, the TGI (A549 NSCLC) was greater than 100 µM, the TGI (CCRF-CEM leukemia) was greater than 100 µM and the TGI (MALME-3M melanoma) was 80.5 µM. It also gave a TGI (SNB-19 CNS) greater than 100 µM, a TGI (NCI-H460 lung) greater than 100 µM and a TGI (NCI-H23 lung) greater than 100 µM. It also gave a TGI (EKVX NSCLC) greater than 100 µM and a TGI (KM12 colon) greater than 100 µM.

CN(C)CCCNC(=O)c1c(-c2cccnc2)cnc2ccccc12 gave a TGI (HCC-2998 colon) greater than 100 µM, a TGI (SK-MEL-2 melanoma) greater than 100 µM and a TGI (MDA-N) greater than 100 µM. It also gave a TGI (HOP-92 NSCLC) greater than 100 µM, a TGI (NCI-H226 lung) greater than 100 µM and a TGI (ACHN renal) greater than 100 µM. The TGI (PC-3 prostate) was greater than 100 µM, the TGI (SW-620 colon) was greater than 100 µM and the TGI (RXF 393 renal) was greater than 100 µM. The TGI (IGROV1 ovarian) was greater than 100 µM, the TGI (SF-539 CNS) was greater than 100 µM and the TGI (MOLT-4 leukemia) was greater than 100 µM. The TGI (UACC-257 melanoma) was greater than 100 µM, the TGI (K-562 leukemia) was greater than 100 µM and the TGI (786-0 renal) was greater than 100 µM. The TGI (COLO 205 colon) was greater than 100 µM, the TGI (NCI/ADR-RES ovarian) was greater than 100 µM and the TGI (SK-MEL-28 melanoma) was greater than 100 µM. For the same compound, the TGI (HOP-62 NSCLC) was greater than 100 µM, the TGI (MCF7 breast) was greater than 100 µM and the TGI (SF-268 CNS) was greater than 100 µM. For the same compound, the TGI (SK-OV-3 ovarian) was greater than 100 µM, the TGI (NCI-H522 lung) was greater than 100 µM and the TGI (DU-145 prostate) was greater than 100 µM. For the same compound, the TGI (OVCAR-3 ovarian) was greater than 100 µM, the TGI (TK-10 renal) was greater than 100 µM and the TGI (HT29 colon) was greater than 100 µM. It also gave a TGI (M14 melanoma) greater than 100 µM, a TGI (SF-295 CNS) greater than 100 µM and a TGI (HL-60(TB) leukemia) greater than 100 µM. It also gave a TGI (UO-31 renal) greater than 100 µM, a TGI (SN12C renal) greater than 100 µM and a TGI (OVCAR-4 ovarian) greater than 100 µM. For the same compound, the TGI (BT-549 breast) was greater than 100 µM, the TGI (OVCAR-8 ovarian) was greater than 100 µM and the TGI (RPMI-8226 leukemia) was greater than 100 µM. The TGI (SR leukemia) was greater than 100 µM, the TGI (SNB-75 CNS) was greater than 100 µM and the TGI (SK-MEL-5 melanoma) was greater than 100 µM. It also gave a TGI (OVCAR-5 ovarian) greater than 100 µM, a TGI (HCT-116 colon) greater than 100 µM and a TGI (CAKI-1 renal) greater than 100 µM. It also gave a TGI (U251 CNS) greater than 100 µM, a TGI (HCT-15 colon) greater than 100 µM and a TGI (UACC-62 melanoma) greater than 100 µM. The TGI (A549 NSCLC) was greater than 100 µM, the TGI (CCRF-CEM leukemia) was greater than 100 µM and the TGI (MALME-3M melanoma) was greater than 100 µM. The TGI (SNB-19 CNS) was greater than 100 µM, the TGI (NCI-H460 lung) was greater than 100 µM and the TGI (NCI-H23 lung) was greater than 100 µM. For the same compound, the TGI (EKVX NSCLC) was greater than 100 µM.

Work on CN(C)CCOc1ccc2[nH]c(C(=O)N3CC(CCl)c4c3cc(NC(=O)OCc3ccc([N+](=O)[O-])cc3)c3ccccc43)cc2c1 (stereo not given) yielded a TGI (HCC-2998 colon) greater than 100 µM, a TGI (MDA-N) of 2.86 µM and a TGI (NCI-H226 lung) of 3.72 µM. For the same compound, the TGI (SW-620 colon) was 2.61 µM, the TGI (SF-539 CNS) was 2.99 µM and the TGI (UACC-257 melanoma) was greater than 100 µM. For the same compound, the TGI (786-0 renal) was 2.09 µM, the TGI (COLO 205 colon) was 3.29 µM and the TGI (SK-MEL-28 melanoma) was 3.06 µM. The TGI (DU-145 prostate) was 1.9 µM, the TGI (TK-10 renal) was greater than 100 µM and the TGI (MDA-MB-231 breast) was 3.23 µM. The TGI (M14 melanoma) was 2.88 µM, the TGI (UO-31 renal) was 2.56 µM and the TGI (SN12C renal) was 2.95 µM. For the same compound, the TGI (SK-MEL-5 melanoma) was 2.76 µM, the TGI (OVCAR-5 ovarian) was 2.95 µM and the TGI (HCT-116 colon) was 2.17 µM. For the same compound, the TGI (U251 CNS) was greater than 100 µM, the TGI (HCT-15 colon) was 3.58 µM and the TGI (UACC-62 melanoma) was 5.36 µM. For the same compound, the TGI (A549 NSCLC) was 2.52 µM, the TGI (MALME-3M melanoma) was 2.86 µM and the TGI (NCI-H460 lung) was greater than 100 µM. The TGI (EKVX NSCLC) was 3.14 µM.
